Assay results: patent US9371336B2, “Compounds for treating spinal muscular atrophy” (PTC Therapeutics Inc., priority 2012, dated 2016)

What was measured:
[1] = system: Smn protein; assay: Smn protein assay (HTRF) in cultured cells (SMA patient fibroblasts GM03813); assay type: cell-based, human; conditions: 48 hours; for EC1.5x for Smn protein expression: SMA patient fibroblast cells (GM03813), HTRF, 7-point concentration data, concentration producing 1.5 times Smn protein vs DMSO vehicle control; for maximum fold (Fold) increase of Smn protein: SMA patient fibroblast cells, 7-point concentration curve, relative to vehicle control
Outline: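 Smn level is expressed as fold over vehicle, from blank-corrected ΔF of the 665/620 nm HTRF ratio. Readout used anti-SMN d2 and kryptate antibodies on RIPA lysates. GM03813 SMA fibroblasts had 48 h exposure at 37° C to seven 3.16-fold compound dilutions, run in triplicate.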

[2] = system: SMN2 minigene mRNA (SMN2-A minigene construct); assay: SMN2 minigene mRNA splicing RT-qPCR assay in cultured cells; assay type: cell-based, human; conditions: Homo sapiens, HEK293-H; HEK293H cells stably transfected with SMN2-A minigene, 24 hours, 7-point concentration data; concentration giving 1.5-fold SMN2 full length mRNA relative to vehicle-treated cells; read-out: EC1.5x for production of full length SMN2 mRNA
Outline: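 Full-length SMN2 minigene mRNA, measured by exon 7/luciferase-specific RT-qPCR that excludes endogenous SMN1/SMN2, was normalized to GAPDH and expressed relative to vehicle-treated cells via modified ΔΔCt. Stably transfected HEK293H cells received compound (7-point, 3.16-fold series, duplicates) for 24 h at 37 °C.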

| melting point | Structure (SMILES) | EC1.5x for Smn protein expression [1] | maximum fold (Fold) increase of Smn protein [1] | EC (1.5-fold) [2] |
| --- | --- | --- | --- | --- |
| 190 to 192 °C | Cc1cn2cc(-c3cc4ccc(N5C[C@H](C)NC[C@H]5C)nc4oc3=O)nc2c(C)n1 [Cpd 95, 3-(6,8-dimethylimidazo[1,2-a]pyrazin-2-yl)-7-[(2R,5S)-2,5-dimethylpiperazin-1-yl]-2H-pyrano[2,3-b]pyridin-2-one] | **** (an EC1.5×≦0.3 μM is indicated by four stars (****)) | ***** (a fold increase >1.65 is indicated by five stars (*****)) | ≤ 0.1 µM |
| 114 to 117 °C | Cc1ccn2cc(-c3cc4ccc(N5C[C@H](C)N(C)C[C@H]5C)nc4oc3=O)nc2c1 [Cpd 96, 3-(7-methylimidazo[1,2-a]pyridin-2-yl)-7-[(2R,5S)-2,4,5-trimethylpiperazin-1-yl]-2H-pyrano[2,3-b]pyridin-2-one] | – | *** (a fold increase between >1.35 and ≦1.5 is indicated by three stars (***)) | 0.3 to 1 µM |
| 194 to 197 °C | C[C@@H]1CN(C)[C@@H](C)CN1c1ccc2cc(-c3cn4cccc(F)c4n3)c(=O)oc2n1 [Cpd 97, 3-(8-fluoroimidazo[1,2-a]pyridin-2-yl)-7-[(2R,5S)-2,4,5-trimethylpiperazin-1-yl]-2H-pyrano[2,3-b]pyridin-2-one] | ** (an EC1.5× between >1 and ≦3 μM is indicated by two stars (**)) | **** (a fold increase between >1.5 and ≦1.65 is indicated by four stars (****)) | 0.1 to 0.3 µM |
| 191 to 196 °C | C[C@@H]1CN(C)[C@@H](C)CN1c1ccc2cc(-c3cn4cccc(Cl)c4n3)c(=O)oc2n1 [Cpd 98, 3-(8-chloroimidazo[1,2-a]pyridin-2-yl)-7-[(2R,5S)-2,4,5-trimethylpiperazin-1-yl]-2H-pyrano [2,3-b]pyridin-2-one] | ** (an EC1.5× between >1 and ≦3 μM is indicated by two stars (**)) | **** (a fold increase between >1.5 and ≦1.65 is indicated by four stars (****)) | 0.1 to 0.3 µM |
| 270 to 273 °C | Cc1ccn2cc(-c3cc4ccc(N5C[C@@H](C)N[C@@H](C)C5)nc4oc3=O)nc2n1 [Cpd 99, 7-[(3R,5S)-3,5-dimethylpiperazin-1-yl]-3-(7-methylimidazo[1,2-a]pyrimidin-2-yl)-2H-pyrano[2,3-b]pyridin-2-one] | – | *** (a fold increase between >1.35 and ≦1.5 is indicated by three stars (***)) | 0.1 to 0.3 µM |
| 246 to 249 °C | Cc1ccn2cc(-c3cc4ccc(N5C[C@@H](C)N[C@@H](C)C5)nc4oc3=O)nc2c1 [Cpd 100, 7-[(3R,5S)-3,5-dimethylpiperazin-1-yl]-3-(7-methylimidazo[1,2-a]pyridin-2-yl)-2H-pyrano[2,3-b]pyridin-2-one] | – | *** (a fold increase between >1.35 and ≦1.5 is indicated by three stars (***)) | ≤ 0.1 µM |
| 279 to 281 °C | Cc1cn2cc(-c3cc4ccc(N5C[C@@H](C)N[C@@H](C)C5)nc4oc3=O)nc2cn1 [Cpd 101, 7-[(3R,5S)-3,5-dimethylpiperazin-1-yl]-3-(6-methylimidazo[1,2-a]pyrazin-2-yl)-2H-pyrano[2,3-b]pyridin-2-one] | *** (an EC1.5× between >0.3 μM and ≦1 μM is indicated by three stars (***)) | **** (a fold increase between >1.5 and ≦1.65 is indicated by four stars (****)) | ≤ 0.1 µM |
| 248 to 250 °C | Cc1cn2cc(-c3cc4ccc(N5C[C@H](C)N(C)C[C@H]5C)nc4oc3=O)nc2cn1 [Cpd 103, 3-(6-methylimidazo[1,2-a]pyrazin-2-yl)-7-[(2R,5S)-2,4,5-trimethylpiperazin-1-yl]-2H-pyrano[2,3-b]pyridin-2-one] | *** (an EC1.5× between >0.3 μM and ≦1 μM is indicated by three stars (***)) | **** (a fold increase between >1.5 and ≦1.65 is indicated by four stars (****)) | 0.1 to 0.3 µM |
| 267 to 269 °C | Cc1cn2cc(-c3cc4ccc(N5CCCNCC5)nc4oc3=O)nc2cn1.Cl [Cpd 104, 7-(1,4-diazepan-1-yl)-3-(6-methylimidazo[1,2-a]pyrazin-2-yl)-2H-pyrano[2,3-b]pyridin-2-one hydrochloride] | – | ** (a fold increase between >1.2 and ≦1.35 is indicated by two stars (**)) | ≤ 0.1 µM |
| 290 to 293 °C | Cc1cn2cc(-c3cc4ccc(N5CCCN(C)CC5)nc4oc3=O)nc2cn1 [Cpd 105, 7-(4-methyl-1,4-diazepan-1-yl)-3-(6-methylimidazo[1,2-a]pyrazin-2-yl)-2H-pyrano[2,3-b]pyridin-2-one] | ** (an EC1.5× between >1 and ≦3 μM is indicated by two stars (**)) | *** (a fold increase between >1.35 and ≦1.5 is indicated by three stars (***)) | ≤ 0.1 µM |
| 280 to 283 °C | Cc1cc(F)c2nc(-c3cc4ccc(N5C[C@@H](C)N[C@@H](C)C5)nc4oc3=O)cn2c1 [Cpd 106, 7-[(3R,5S)-3,5-dimethylpiperazin-1-yl]-3-(8-fluoro-6-methylimidazo[1,2-a]pyridin-2-yl)-2H-pyrano[2,3-b]pyridin-2-one] | *** (an EC1.5× between >0.3 μM and ≦1 μM is indicated by three stars (***)) | *** (a fold increase between >1.35 and ≦1.5 is indicated by three stars (***)) | ≤ 0.1 µM |
| 276 to 279 °C | Cc1cc(F)c2nc(-c3cc4ccc(N5CCCNCC5)nc4oc3=O)cn2c1.Cl [Cpd 107, 7-(1,4-diazepan-1-yl)-3-(8-fluoro-6-methylimidazo[1,2-a]pyridin-2-yl)-2H-pyrano[2,3-b]pyridin-2-one hydrochloride] | *** (an EC1.5× between >0.3 μM and ≦1 μM is indicated by three stars (***)) | **** (a fold increase between >1.5 and ≦1.65 is indicated by four stars (****)) | ≤ 0.1 µM |
| 231 to 235 °C | O=c1oc2nc(N3CCNCC3)ccc2cc1-c1cn2cccc(F)c2n1 [Cpd 108, 3-(8-fluoroimidazo[1,2-a]pyridin-2-yl)-7-(piperazin-1-yl)-2H-pyrano[2,3-b]pyridin-2-one] | **** (an EC1.5×≦0.3 μM is indicated by four stars (****)) | **** (a fold increase between >1.5 and ≦1.65 is indicated by four stars (****)) | ≤ 0.1 µM |
| 233 to 237 °C | O=c1oc2nc(N3CCNCC3)ccc2cc1-c1cn2cccc(Cl)c2n1 [Cpd 109, 3-(8-chloroimidazo[1,2-a]pyridin-2-yl)-7-(piperazin-1-yl)-2H-pyrano[2,3-b]pyridin-2-one] | **** (an EC1.5×≦0.3 μM is indicated by four stars (****)) | **** (a fold increase between >1.5 and ≦1.65 is indicated by four stars (****)) | ≤ 0.1 µM |
